Our source for the inhibition and IC50 values is ChEMBL document CHEMBL1938304, “Synthesis, characterization and activity of new phosphonate dipeptides as potential inhibitors of VanX” (Bioorg Med Chem Lett, 2012).

A short description of assay [1]: Inhibition of metallo-betalactamase CCrA using penicillin G as substrate up to 1 mM and pH 7.
A short description of assay [2]: Inhibition of metallo-betalactamase L1 using penicillin G as substrate up to 1 mM and pH 7.
A short description of assay [3]: Inhibition of metallo-betalactamase ImiS using penicillin G as substrate up to 1 mM and pH 7.
Assay [4] deals with T1, D-alanyl-D-alanine dipeptidase (Enterococcus faecium, UniProt Q06241).
T1 sequence (Q06241 whole entry): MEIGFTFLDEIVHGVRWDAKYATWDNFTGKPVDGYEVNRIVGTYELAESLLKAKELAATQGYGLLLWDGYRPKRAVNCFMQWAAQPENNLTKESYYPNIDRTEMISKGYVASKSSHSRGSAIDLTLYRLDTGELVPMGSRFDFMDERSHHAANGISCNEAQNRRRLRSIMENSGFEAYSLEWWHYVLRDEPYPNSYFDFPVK
The assay is described as follows: Inhibition of Enterococcus faecium VanX overexpressed in Escherichia coli BL21 (DE3) cells using D-ala-D-ala as substrate preincubated for 30 mins measured after 150 secs by modified Cd-ninhydrin method.

Assay [5] concerns the target T2, D-alanyl-D-alanine dipeptidase (Enterococcus faecium) (UniProt Q06241).
T2 sequence (whole entry): T1 sequence (Q06241 whole entry)
The assay can be described thus: Inhibition of Enterococcus faecium VanX overexpressed in Escherichia coli BL21 (DE3) cells using D-ala-D-ala as substrate up to 5 mM preincubated for 30 mins measured after 150 secs by modified Cd-ninhydrin method.

Assay [6] has as its target T1, D-alanyl-D-alanine dipeptidase. The assay is described as follows: Competitive inhibition of Enterococcus faecium VanX overexpressed in Escherichia coli BL21 (DE3) cells using D-ala-D-ala as substrate preincubated for 3 mins measured after 150 secs by modified Cd-ninhydrin method.

SMILES strings stand for the structures. pIC50: −log10 of the molar value. The source made the active and inactive calls. The calls are words filed in the database; no cut-off is given here.

By pIC50 is commonly meant the IC50 on a negative log10 scale, so that one unit is a factor of ten. A low value points to a high IC50. On to `CC(C)C[C@@H](OP(=O)(O)[C@H](C)N)C(=O)O`, for which the inhibition entry in assay [1], in assay [2] and in assay [3] was “inactive” in each case. In addition, the pIC50 in assay [4] was 2.97.
On to `CC[C@H](C)[C@@H](OP(=O)(O)[C@H](C)N)C(=O)O`, for which the inhibition result in assay [1], in assay [2] and in assay [3] was “inactive” throughout. Further, the pIC50 in assay [4] is 2.88.
Take `C[C@H](N)P(=O)(O)O[C@H](CCC(=O)O)C(=O)O`: the inhibition result in assay [1], in assay [2], in assay [3] and in assay [5] was “inactive” each time.
In assay [6], `C[C@H](N)P(=O)(O)O[C@H](C)C(=O)O` showed a pIC50 of 3.12. Besides, the inhibition result in assay [1], in assay [2] and in assay [3] was “inactive” in each case.
For the molecule `C[C@H](N)P(=O)(O)OCC(=O)O`, the inhibition entry in assay [1], in assay [2] and in assay [3] was “inactive” each time. Moreover, the pIC50 in assay [4] was 3.32.
Take `C[C@H](N)P(=O)(O)O[C@H](Cc1ccccc1)C(=O)O`: the inhibition entry in assay [1], in assay [2] and in assay [3] was “inactive” throughout. Further, the pIC50 in assay [4] is 2.09.
Consider `CC(C)[C@@H](OP(=O)(O)[C@H](C)N)C(=O)O`, for which the inhibition result in assay [1], in assay [2] and in assay [3] was “inactive” in each case. The pIC50 in assay [4] is 2.55.
